# Results as given in patent US5281710A, “Dynemicin analogs: synthesis, methods of preparation and use” (The Scripps Research Institute, priority 1992, dated 1994).
# pIC50: −log10 of the molar value. “Also recorded” adds a separate entry of the source. Where two headings read alike, the source gives them in different places.
# Tests used:
# [1] = test system: cancer cell lines; assay: cells; type: cell-based; settings: for cytotoxicity (qualitative): cancer cell lines
# Procedure: (§1) In addition to the screening already discussed, several of the before-described compounds and chimeras were screened against several or all of a panel of ten to twenty-five cancerous cell lines as target cells and seven "normal" cell preparations. This screening utilized a sulforhodamine B cytotoxidity assay as discussed below.
# SULFORHODAMINE B CYTOTOXICITY ASSAY
# a. Stock drug solutions were prepared by dissolving drug in the appropriate solvent (determined during chemical characterization studies) and sterile filtering the drug-solvent solution through a sterile 0.2μ filter unit. An aliquot was taken from each filtered drug solution and the O.D. was measured to determine the drug concentration.
# f. Incubate (37° C., 5-10 percent CO2 in humidified incubator) plates for a total of 72 hours. Check plates at 24 hour intervals microscopically for signs of cytotoxicity.
# (§2) IC50 values; i.e., the concentration of Compound required to kill one-half of the treated cells, were then calculated.
# All other cells or cell lines were obtained from the American Type Culture Collection (ATCC) (all except CHO cells are human or mouse cancer cell lines as described by the ATC).
# Tables 1 and 2 herein below provide average IC50 data from five to all ten of the above cancer cells lines for fused ring enediyne compounds disclosed herein. Those tables provide a generic structure and a description of the R group of that generic structure for each compound. Compound numbers as noted hereinbefore are also provided. Table 3 contains data for two fused-ring enediyne compounds (Compounds 47 and 120) as well as data for six chimers. Table 4 contains cancer cell and noraml cell cytotoxicity data for one select fused ring enediyne, Compound 153 against a number of "normal" cell preparations and tumor cell lines. Table 5 contains cancer cell and normal cell cytotoxicity data for another fused ring enediyne, Compound 250 against a similar panel of cells.
# [2] = test system: φX174 Form I DNA; assay: φX174 supercoiled DNA cleavage, agarose gel; type: biochemical
# Procedure: The ethereal solution of Compound 40 produced by the LiAlH4 reduction of Compound 21 (39 mg, 0.10 mmol) was evaporated in vacuo to dryness and the residue dissolved in THF (4 mL) to give a 25 mM solution of Compound 40, assuming complete conversion of Compound 21. […]
# Thus, a vial containing a 50 micromolar per base pair solution […] of the same buffer solution and 2.0 microliters of a 5.0 millimolar ethanol solution of Compound 40.
# […] A 2.0 microliter portion of glycerol loading buffer solution containing bromothymol blue indicator was added to each vial. A 10 microliter aliquot was then drawn from each. Gel electrophoresis analysis of the aliquots was performed using a 1.0 percent agarose gel with ethidium bromide run at 115 volts for 1 hour. DNA cleavage was indicated by the formation of nicked relaxed circular DNA (form II) or linearized DNA (form III), which was detected by visual inspection of the gel under 310 nanometer ultraviolet light using ethidium bromide.
# [3] = Chemical stability; type: physicochemical
# [4] = test system: MOLT-4 (Leukemia) cell line; assay: cells; type: cell-based; settings: for potency against Molt-4 relative to the other cell lines: Molt-4 vs average of other cell lines; for pIC50: read-out: IC50
# Procedure: as §1, §2
# [5] = Average data obtained from 5~10 cell lines, read-out: IC50 (average)
# [6] = 5.0 mM, pH 8.5, 36 hours, 37° C.
smiles,measurement,setting,value
O=C(OCCSc1ccccc1)N1c2ccccc2[C@@]23O[C@]24CCC[C@H]3C#C/C=C\C#C[C@H]14 (relative stereo) [Compound 21a],pIC50,[1]; [5],4.20
O=C(OCC[S+]([O-])c1ccccc1)N1c2ccccc2[C@@]23O[C@]24CCC[C@H]3C#C/C=C\C#C[C@H]14 (relative stereo) [Compound 21b],pIC50,[1]; [5],4.49
COc1ccc2c(c1)[C@@]13O[C@]14CCC[C@H]3C#C/C=C\C#C[C@@H]4N2C(=O)Oc1ccccc1 (relative stereo) [Compound 41a],pIC50,[1]; [5],4.70
CO[C@]12C#C/C=C\C#C[C@@H]3N(C(=O)Oc4ccccc4)c4ccccc4[C@]14O[C@@]34CCC2 (relative stereo) [Compound 46],pIC50,[1]; [5],4.20
O=C(OCCS(=O)(=O)c1ccccc1)N1c2ccccc2[C@@]23O[C@]24CCC[C@H]3C#Cc2ccccc2C#C[C@H]14 (relative stereo) [Compound 70],DNA cleavage,"[2]; basic conditions, pH 9.0",exhibited DNA cleaving properties
same,pIC50,[1]; [5],5.49
same,cytotoxicity (qualitative),[1],potent anticancer activity against a variety of cell lines
O=C(Oc1ccccc1)N1c2ccccc2[C@@]23O[C@]24CCC[C@@]3(O)C#Cc2ccccc2C#C[C@H]14 (relative stereo) [Compound 74],pIC50,[1]; [5],4.70
O=C(OCCSc1ccccc1)N1c2ccccc2[C@@]23O[C@]24CCC[C@H]3C#Cc2ccccc2C#C[C@H]14 (relative stereo) [Compound 77],pIC50,[1]; [5],4.44
O=C(OCCS(=O)(=O)c1ccccc1)N1c2ccccc2[C@@]23O[C@]24CCC[C@H]3C#Cc2cc3ccccc3cc2C#C[C@H]14 (relative stereo) [Compound 80],DNA cleavage,"[2]; basic conditions, pH 9.0",exhibited DNA cleaving properties
same,pIC50,[1]; [5],5.80
same,cytotoxicity (qualitative),[1],potent anticancer activity against a variety of cell lines
O=C(Oc1ccccc1)N1c2ccccc2[C@@]23O[C@]24CCC[C@@]3(O)C#Cc2cc3ccccc3cc2C#C[C@H]14 (relative stereo) [Compound 85],pIC50,[1]; [5],4.70
O=C(OCCSc1ccccc1)N1c2ccccc2[C@@]23O[C@]24CCC[C@H]3C#Cc2cc3ccccc3cc2C#C[C@H]14 (relative stereo) [Compound 88],pIC50,[1]; [5],4.30
CC(=O)O[C@]12C#C/C=C\C#C[C@@H]3N(C(=O)Oc4ccccc4)c4cc(O)ccc4[C@]14O[C@@]34CCC2 (relative stereo) [Compound 171],DNA cleavage,"[2]; pH 8.5, 24 or 48 hours, 37° C.",strong activity
COC(=O)COC12C#C/C=C\C#CC3N(C(=O)Oc4ccccc4)c4ccccc4C14OC34CCC2 (stereo not shown) [Compound 24b],pIC50,[1]; [5],5.30
C1#CC2Nc3ccccc3C34OC23CCCC4C#C/C=C\1 (stereo not shown) [Compound 40],DNA cleavage,"[2]; 5 mM, pH 8.0, 24 hours",significant DNA cleavage
same,DNA cleavage,"[2]; pH 7.4 phosphate, 20 volume percent THF, 24 hours, 100-5000 μM",cleavage
same,chemical stability,[3],too labile for isolation; also recorded: decomposed at that temperature
COc1ccc2c(c1)C13OC14CCCC3C#C/C=C\C#CC4N2C(=O)OCCS(=O)(=O)c1ccccc1 (stereo not shown) [Compound 41b],pIC50,[1]; [5],6.60
same,potency against Molt-4 relative to the other cell lines,[4],"10,000 times"
COc1ccc2c(c1)C13OC14CCCC3C#C/C=C\C#CC4N2C(=O)OCCS(=O)(=O)c1cccc2ccccc12 (stereo not shown) [Compound 41c],pIC50,[1]; [5],6.70
same,potency against Molt-4 relative to the other cell lines,[4],"10,000 times"
COc1ccc2c(c1)C13OC14CCCC3C#C/C=C\C#CC4N2C(=O)OCCS(=O)(=O)c1ccc2ccccc2c1 (stereo not shown) [Compound 41d],pIC50,[1]; [5],6.89
same,potency against Molt-4 relative to the other cell lines,[4],"10,000 times"
O=C(Oc1ccccc1)N1c2cc(O)ccc2C23OC24CCCC3(O)C#C/C=C\C#CC14 (stereo not shown) [Compound 42],cleavage of double stranded DNA,[2]; 2 mM,shown to cause cleavage of double stranded DNA
same,DNA cleavage,"[2]; 5 mM, pH 8.0, 24 hours",significant DNA cleavage
same,DNA cleavage,[2]; [6],significant DNA cleaving action
same,chemical stability,[3],led to decomposition
O=C(Oc1ccccc1)N1c2cc(OCc3ccccc3[N+](=O)[O-])ccc2C23OC24CCCC3(O)C#C/C=C\C#CC14 (stereo not shown) [Compound 43],DNA cleavage,[2]; [6],inert
same,chemical stability,[3],rather labile
COC12C#C/C=C\C#CC3N(C(=O)OCCS(=O)(=O)c4ccccc4)c4ccccc4C14OC34CCC2 (stereo not shown) [Compound 47],DNA cleavage,"[2]; 5 mM, pH 8.0, 24 hours",diminished activity against DNA
same,pIC50,[1]; [5],5.30
COC12C#C/C=C\C#CC3Nc4ccccc4C14OC34CCC2 (stereo not shown) [Compound 48],chemical stability,[3],quite stable under basic or neutral conditions
O=C1C=CC23OC24C2(O)C#C/C=C\C#CC(N(C(=O)Oc5ccccc5)C3=C1)C4(O)CCC2 (stereo not shown) [Compound 54],DNA cleaving activity,[2],exhibited DNA cleaving activity
same,DNA cleavage,"[2]; 5 mM, pH 8.0, 24 hours",significant DNA cleavage
same,DNA cleavage,[2]; [6],exhibited DNA cleaving capability
same,chemical stability,[3],sensitive but stable molecule under neutral conditions
COC12C#C/C=C\C#CC3N(C(=O)Oc4ccccc4)c4cc(O)ccc4C14OC34CCC2 (stereo not shown) [Compound 55],DNA cleavage,"[2]; 5 mM, pH 8.0, 24 hours",diminished activity against DNA
CC(C)(C)C(=O)Oc1ccc2c(c1)N(C(=O)Oc1ccccc1)C1C#C/C=C\C#CC3(O)CCCC14OC234 (stereo not shown) [Compound 59a],DNA cleavage,[2]; [6],inert
same,pIC50,[1]; [5],6.10
same,pIC50,"[4]; Homo sapiens, MOLT-4, Molt-4 leukemia cell line",7.01
CC(C)(C)C(=O)Oc1ccc2c(c1)N(C(=O)Oc1ccccc1)C1C#C/C=C\C#CC3CCCC14OC234 (stereo not shown) [Compound 59b],DNA cleavage,[2]; [6],inert
same,pIC50,[1]; [5],6.70
same,potency against Molt-4 relative to the other cell lines,[4],"10,000 times"
O=C(Oc1ccccc1)N1c2ccccc2C23OC24CCCC3C#Cc2ccccc2C#CC14 (stereo not shown) [Compound 76],pIC50,[1]; [5],5.10
C1#CC2Nc3ccccc3C34OC23CCCC4C#Cc2ccccc21 (stereo not shown) [Compound 76a],chemical stability,[3],stable at 25 °C
O=C(Oc1ccccc1)N1c2ccccc2C23OC24CCCC3C#Cc2cc3ccccc3cc2C#CC14 (stereo not shown) [Compound 87],pIC50,[1]; [5],5.49
C1#CC2Nc3ccccc3C34OC23CCCC4C#Cc2cc3ccccc3cc21 (stereo not shown) [Compound 87a],chemical stability,[3],stable at 25 °C
O=C(OCCS(=O)(=O)c1ccccc1)N1c2ccccc2C23OC24CCCC3(OCCO)C#C/C=C\C#CC14 (stereo not shown) [Compound 120],pIC50,[1]; [5],4.40
CCNC1COC(OC2C(OCCOC34C#CC=CC#CC5N(C(=O)OCCS(=O)(=O)c6ccccc6)c6ccccc6C36OC56CCC4)OC(C)C(=NOC3CC(O)C(SC(=O)c4c(C)c(I)c(OC5OC(C)C(O)C(OC)C5O)c(OC)c4OC)C(C)O3)C2O)CC1OC (stereo not shown) [Compound 126a],pIC50,[1]; [5],4.36
CCNC1COC(OC2C(OCCOC34C#CC=CC#CC5N(C(=O)OCCS(=O)(=O)c6ccccc6)c6ccccc6C36OC56CCC4)OC(C)C(=NOC3CC(O)C(SC(=O)c4c(C)c(I)c(OC5OC(C)C(O)C(OC)C5O)c(OC)c4OC)C(C)O3)C2O)CC1OC (stereo not shown) [Compound 126b],pIC50,[1]; [5],5.06
CCNC1COC(OC2C(OCCOC34C#CC=CC#CC5N(C(=O)OCCS(=O)(=O)c6ccccc6)c6ccccc6C36OC56CCC4)OC(C)C(NOC3CC(O)C(SC(=O)c4c(C)c(I)c(OC5OC(C)C(O)C(OC)C5O)c(OC)c4OC)C(C)O3)C2O)CC1OC (stereo not shown) [Compound 127a],pIC50,[1]; [5],6.85
same,cytotoxicity (qualitative),[1],particularly effective
same,pIC50,[4]; Molt-4 leukemia cell line,9.00
same,potency against Molt-4 relative to the other cell lines,[4],about 100 times
CCNC1COC(OC2C(OCCOC34C#CC=CC#CC5N(C(=O)OCCS(=O)(=O)c6ccccc6)c6ccccc6C36OC56CCC4)OC(C)C(NOC3CC(O)C(SC(=O)c4c(C)c(I)c(OC5OC(C)C(O)C(OC)C5O)c(OC)c4OC)C(C)O3)C2O)CC1OC (stereo not shown) [Compound 127b],pIC50,[1]; [5],5.12
same,cytotoxicity (qualitative),[1],particularly effective
same,pIC50,[4]; Molt-4 leukemia cell line,10.00
CC(=O)OC12C#C/C=C\C#CC3N(C(=O)Oc4ccccc4)c4cc(O)ccc4C14OC34CCC2 (stereo not shown) [Compound 201],DNA cleavage,[2]; [6],significant DNA cleaving action
CC(=O)Oc1ccc2c(c1)N(C(=O)Oc1ccccc1)C1C#C/C=C\C#CC3(OC(C)=O)CCCC14OC234 (stereo not shown) [Compound 202],DNA cleavage,[2]; [6],inert
"COc1cccc2c1C(=O)c1c(O)c3c(c(O)c1C2=O)C[C@@](O)(C(=O)CO)C[C@@H]3O[C@H]1C[C@H](N)[C@H](O)[C@H](C)O1 [Doxorubicin, reference compound]",pIC50,"[1]; cancer cells, control drugs, read-out: Range of Average IC50 Values, Cancer Cells",7.01 to 9.80
"C=CS(=O)(=O)c1ccccc1 [phenyl vinyl sulfone, reference compound]",DNA cleavage,[2]; 1.0 mM,no DNA cleavage
same,DNA cleavage,"[2]; 5.0 mM, pH 8.5 and 9.0, 48 hours, 37° C.",Form II DNA
